Laboratory results published in patent US4432973A, “Benzoyl- and α-hydroxybenzyl-phenyl-glycosides and application thereof in therapeutics” (Societe de Recherches Industrielles (S.O.R.I.), priority 1980, dated 1984).

Experiments:
[1] = Acute toxicity in the mouse by the I.P. route; type: in vivo; conditions: for LD50: read-out: DL-50 (lethal dose involving the death of half of the animals)
Excerpt: The acute toxicity was studied in the mouse by the I.P. route. It is expressed in the form of DL-50 (lethal dose involving the death of half of the animals) or DL-0 (maximum non-lethal dose).

[2] = Anti-ulcer activity: ulcer caused by aspirin; type: in vivo, rat (male Wistar); conditions: aspirin 192 mg/kg per os, standardised to control batch and cimetidine (index 1)
Procedure: The experiment is carried out on male Wistar rats of 180 to 200 g. The products to be tested are administered at 100 mg/kg I.P. (unless indicated to the contrary in Table IV).
At t=0, the rats are made to fast and a first administration of the product to be tested is made.
At t=18 hours, 2 ml of an ulcer-forming suspension with 192 mg of aspirin/kg are administered per os then a second administration of the product to be tested is made.
At t=22 hours, the animals are sacrificed and the ulcers are marked as follows: small point-like ulcers: mark 1 more extensive ulcers: mark 3 highly extensive or very deep ulcers: mark 9
This marking is standardised with respect to a control batch and to cimetidine (a reference product) to which index 1 has been allocated.

[3] = Anti-hypoxic activity: survival to hypoxia (nitrogen-oxygen 95:5); type: in vivo, mouse (Swiss male); conditions: I.P., 1/10th of LD-50 or 100 mg/kg when LD-0 ≥ 800 mg/kg; up to 15 minutes; mouse
Procedure: The experiment is carried out on batches of 20 Swiss male mice weighing from 20 to 30 g. Each product to be tested is administered to the mice by intraperitoneal route at a dose corresponding to 1/10th of the LD-50 or at a dose of 100 mg/kg when the LD-0 is higher than or equal to 800 mg/kg. The mice are placed in a nitrogen-oxygen (95:5) v/v atmosphere. The survival time of the mice is then measured up to 15 minutes maximum.
The results shown in Table VII are expressed in percentage of survival with respect to a non-treated control batch and a batch treated with an anti-hypoxic reference product [specialty known under the trade name of "Duxil" and which is constituted by a mixture of Almitrine bis-methanesulfonate and of Raubasine in the weight ratio 3:1], the anti-hypoxic reference product being administered at the dose of 18 mg/kg I.P.

SMILES: Cc1ccc(C(O)c2cccc(O[C@@H]3OC[C@@H](O)[C@H](O)[C@H]3O)c2)cc1 (single isomer, unassigned) [Example 107]
- DL-50 (lethal dose involving the death of half of the animals) ([1]; I.P.): 550 mg/kg IP

SMILES: O=C(c1ccc(O[C@@H]2OC[C@@H](O)[C@H](O)[C@H]2O)cc1)c1ccc(C(F)(F)F)cc1 [Example 11]
- DL-0 (maximum non-lethal dose) ([1]; in vivo, ip): > 800 mg/kg IP
- Ulcer index ([2]; 200 mg/kg P.O.): 0
- Survival (survival percentage to hypoxic aggression) [3]: ++ (from 50 to 79%)

SMILES: O=C(c1ccc(O[C@@H]2OC[C@@H](O)[C@H](O)[C@H]2O)cc1)c1cccc(C(F)(F)F)c1 [Example 13]
- LD50 ([1]; in vivo, ip, I.P.): 170 mg/kg
- Ulcer index ([2]; 100 mg/kg I.P.): 0.46
- Survival (survival percentage to hypoxic aggression) [3]: ++ (from 50 to 79%)

SMILES: COc1cccc(C(=O)c2ccc(O[C@@H]3OC[C@@H](O)[C@H](O)[C@H]3O)cc2)c1 [Example 16]
- DL-0 (maximum non-lethal dose) ([1]; in vivo, ip): > 800 mg/kg IP
- Ulcer index ([2]; 100 mg/kg I.P.): 0.73
- Survival (survival percentage to hypoxic aggression) [3]: + (from 30 to 49%)

SMILES: O=C(c1ccc(O[C@@H]2O[C@H](CO)[C@H](O)[C@H](O)[C@H]2O)cc1)c1ccc([N+](=O)[O-])cc1 [Example 20]
- DL-0 (maximum non-lethal dose) ([1]; I.P.): > 800 mg/kg IP
- Ulcer index ([2]; 100 mg/kg I.P.): 0.62

SMILES: Cc1cc(C(=O)c2ccc(Cl)cc2)cc(C)c1O[C@@H]1OC[C@@H](O)[C@H](O)[C@H]1O [Example 22]
- LD50 ([1]; in vivo, ip, I.P.): 500 mg/kg
- Ulcer index ([2]; 100 mg/kg I.P.): 1.46

SMILES: Cc1cc(C(=O)c2ccccc2)cc([N+](=O)[O-])c1O[C@@H]1OC[C@@H](O)[C@H](O)[C@H]1O [Example 25]
- LD50 ([1]; in vivo, ip, I.P.): 330 mg/kg
- Ulcer index ([2]; 100 mg/kg I.P.): 0.54

SMILES: Cc1cc(O)ccc1C(=O)c1cc(C)c(O[C@@H]2O[C@H](CO)[C@@H](O)[C@H](O)[C@H]2O)c(C)c1 [Example 27]
- DL-0 (maximum non-lethal dose) ([1]; I.P.): > 800 mg/kg IP
- Ulcer index ([2]; 100 mg/kg I.P.): 0.42

SMILES: Cc1cc(C(=O)c2ccc(Cl)cc2)ccc1O[C@@H]1OC[C@@H](O)[C@H](O)[C@H]1O [Example 28]
- DL-0 (maximum non-lethal dose) ([1]; in vivo, ip): > 800 mg/kg IP
- Survival (survival percentage to hypoxic aggression) [3]: ++ (from 50 to 79%)

SMILES: O=C(c1ccc(O[C@@H]2OC[C@@H](O)[C@H](O)[C@H]2O)cc1)c1ccc(Cl)cc1Cl [Example 31]
- DL-0 (maximum non-lethal dose) ([1]; I.P.): > 800 mg/kg IP
- Ulcer index ([2]; 100 mg/kg I.P.): 1.04

SMILES: Cc1cc(C)c(C(=O)c2ccc(O[C@@H]3OC[C@@H](O)[C@H](O)[C@H]3O)cc2)c(C)c1 [Example 32]
- DL-0 (maximum non-lethal dose) ([1]; I.P.): > 800 mg/kg IP
- Ulcer index ([2]; 100 mg/kg I.P.): 0.54

SMILES: COc1cc(C(=O)c2ccc(O[C@@H]3OC[C@@H](O)[C@H](O)[C@H]3O)cc2)cc(OC)c1OC [Example 33]
- DL-0 (maximum non-lethal dose) ([1]; I.P.): > 800 mg/kg IP
- Ulcer index ([2]; 100 mg/kg I.P.): 0.46

SMILES: CC(=O)N[C@H]1[C@H](Oc2c(C)cc(C(=O)c3c(C)cccc3C)cc2C)O[C@H](CO)[C@@H](O)[C@@H]1O [Example 37]
- LD50 ([1]; in vivo, ip, I.P.): 600 mg/kg
- Ulcer index ([2]; 100 mg/kg I.P.): 1.02

SMILES: CC(=O)O[C@@H]1[C@@H](OC(C)=O)[C@H](Oc2ccc(C(=O)c3ccc(N=C=S)cc3)cc2)OC[C@H]1OC(C)=O [Example 42]
- DL-0 (maximum non-lethal dose) ([1]; I.P.): > 800 mg/kg IP

SMILES: O=C(c1ccc(Cl)cc1)c1cccc(O[C@@H]2OC[C@@H](O)[C@H](O)[C@H]2O)c1 [Example 48]
- LD50 ([1]; in vivo, ip, I.P.): 220 mg/kg
- Ulcer index ([2]; 100 mg/kg I.P.): 0.75

SMILES: Cc1ccc(C(=O)c2cccc(O[C@@H]3OC[C@@H](O)[C@H](O)[C@H]3O)c2)cc1 [Example 49]
- DL-0 (maximum non-lethal dose) ([1]; I.P.): > 800 mg/kg IP
- Ulcer index ([2]; 100 mg/kg I.P.): 1.21

SMILES: Cc1ccccc1C(=O)c1cccc(O[C@@H]2OC[C@@H](O)[C@H](O)[C@H]2O)c1 [Example 52]
- DL-0 (maximum non-lethal dose) ([1]; I.P.): > 800 mg/kg IP

SMILES: O=C(c1ccc(C(F)(F)F)cc1)c1cccc(O[C@@H]2OC[C@@H](O)[C@H](O)[C@H]2O)c1 [Example 53, [3-(4-trifluoromethylbenzoyl)-phenyl]-β-D-xylopyranoside]
- LD50 ([1]; in vivo, ip, I.P.): 550 mg/kg
- Ulcer index ([2]; 100 mg/kg I.P.): 0.64

SMILES: COC(=S)Nc1ccc(C(=O)c2ccc(O[C@@H]3OC[C@@H](O)[C@H](O)[C@H]3O)cc2)cc1 [Example 65]
- DL-0 (maximum non-lethal dose) ([1]; I.P.): > 800 mg/kg IP

SMILES: CC(=O)N[C@H]1[C@H](Oc2c(C)cc(C(=O)c3ccccc3C)cc2C)O[C@H](COS(=O)(=O)O)[C@@H](OS(=O)(=O)O)[C@@H]1OS(=O)(=O)O [Example 68]
- DL-0 (maximum non-lethal dose) ([1]; I.P.): > 800 mg/kg IP

SMILES: O=C(c1ccc(O[C@@H]2OC[C@@H](OS(=O)(=O)O)[C@H](OS(=O)(=O)O)[C@H]2OS(=O)(=O)O)cc1)c1cccc([N+](=O)[O-])c1 [Example 72]
- LD50 ([1]; in vivo, ip, I.P.): 650 mg/kg
- Ulcer index ([2]; 100 mg/kg I.P.): 0.47

SMILES: CC(=O)O[C@@H]1[C@@H](OC(C)=O)[C@H](Oc2ccc(C(=O)c3c(C)cc(C)cc3C)cc2)OC[C@H]1OC(C)=O [Example 73]
- DL-0 (maximum non-lethal dose) ([1]; I.P.): > 800 mg/kg IP
- Ulcer index ([2]; 100 mg/kg I.P.): 0.52

SMILES: CC(=O)O[C@@H]1[C@@H](OC(C)=O)[C@H](Oc2ccc(C(=O)c3ccc(Cl)cc3Cl)cc2)OC[C@H]1OC(C)=O [Example 74]
- DL-0 (maximum non-lethal dose) ([1]; I.P.): > 800 mg/kg IP
- Ulcer index ([2]; 100 mg/kg I.P.): 0.91

SMILES: CC(=O)O[C@@H]1[C@@H](OC(C)=O)[C@H](Oc2ccc(C(=O)c3ccccc3[N+](=O)[O-])cc2)OC[C@H]1OC(C)=O [Example 78]
- DL-0 (maximum non-lethal dose) ([1]; I.P.): > 800 mg/kg IP

SMILES: CC(=O)O[C@@H]1[C@@H](OC(C)=O)[C@H](Oc2ccc(C(=O)c3cccc([N+](=O)[O-])c3)cc2)OC[C@H]1OC(C)=O [Example 80]
- DL-0 (maximum non-lethal dose) ([1]; I.P.): > 800 mg/kg IP
- Ulcer index ([2]; 100 mg/kg I.P.): 1.00

SMILES: CC(=O)O[C@@H]1[C@@H](OC(C)=O)[C@H](Oc2cccc(C(=O)c3ccc(Cl)cc3)c2)OC[C@H]1OC(C)=O [Example 82]
- DL-0 (maximum non-lethal dose) ([1]; I.P.): > 800 mg/kg IP

SMILES: CC(=O)O[C@@H]1[C@@H](OC(C)=O)[C@H](Oc2cccc(C(=O)c3ccccc3)c2)OC[C@H]1OC(C)=O [Example 83]
- DL-0 (maximum non-lethal dose) ([1]; in vivo, ip): > 800 mg/kg IP
- Survival (survival percentage to hypoxic aggression) [3]: ++ (from 50 to 79%)

SMILES: COc1cc(C(=O)c2ccc(O[C@@H]3OC[C@@H](OC(C)=O)[C@H](OC(C)=O)[C@H]3OC(C)=O)cc2)cc(OC)c1O [Example 84]
- DL-0 (maximum non-lethal dose) ([1]; I.P.): > 800 mg/kg IP

SMILES: Cc1ccc(C(O)c2ccc(O[C@@H]3OC[C@@H](O)[C@H](O)[C@H]3O)cc2)cc1 (stereo partly shown) [Example 90]
- DL-0 (maximum non-lethal dose) ([1]; I.P.): > 800 mg/kg IP
- Ulcer index ([2]; 100 mg/kg I.P.): 0.57

SMILES: OC(c1ccc(O[C@@H]2OC[C@@H](O)[C@H](O)[C@H]2O)cc1)c1cccc(C(F)(F)F)c1 (stereo partly shown) [Example 93]
- DL-0 (maximum non-lethal dose) ([1]; I.P.): > 800 mg/kg IP

SMILES: OC(c1ccc(Br)cc1)c1ccc(O[C@@H]2OC[C@@H](O)[C@H](O)[C@H]2O)cc1 (stereo partly shown) [Example 95]
- DL-0 (maximum non-lethal dose) ([1]; I.P.): > 800 mg/kg IP
- Ulcer index ([2]; 100 mg/kg I.P.): 0.52

SMILES: CC(=O)N[C@H]1[C@H](Oc2ccc(C(=O)c3ccccc3Cl)cc2)O[C@H](CO)[C@@H](O)[C@@H]1O [Example 120]
- DL-0 (maximum non-lethal dose) ([1]; in vivo, ip): > 800 mg/kg IP
- Survival (survival percentage to hypoxic aggression) [3]: +++ (higher than or equal to 80%)

SMILES: O=C(c1ccc(Cl)cc1)c1ccc(O[C@@H]2O[C@H](CO)[C@@H](O)[C@H](O)[C@H]2O)cc1 [Example 124]
- DL-0 (maximum non-lethal dose) ([1]; in vivo, ip): > 800 mg/kg IP
- Survival (survival percentage to hypoxic aggression) [3]: + (from 30 to 49%)

SMILES: O=C(c1ccccc1)c1ccc(O[C@@H]2O[C@H](CO)[C@@H](O)[C@H](O)[C@H]2O)cc1 [Example 126]
- DL-0 (maximum non-lethal dose) ([1]; in vivo, ip): > 800 mg/kg IP
- Survival (survival percentage to hypoxic aggression) [3]: + (from 30 to 49%)

SMILES: Cc1ccc(C(=O)c2ccc(O[C@@H]3O[C@H](CO)[C@@H](O)[C@H](O)[C@H]3O)cc2)cc1 [Example 127]
- LD50 ([1]; in vivo, ip, I.P.): 700 mg/kg
- Survival (survival percentage to hypoxic aggression) [3]: ++ (from 50 to 79%)

SMILES: CC(=O)N[C@H]1[C@H](Oc2ccc(C(O)c3ccc(C)cc3)cc2)O[C@H](CO)[C@@H](O)[C@@H]1O (stereo partly shown) [Example 128]
- DL-0 (maximum non-lethal dose) ([1]; in vivo, ip): > 800 mg/kg IP
- Survival (survival percentage to hypoxic aggression) [3]: ++ (from 50 to 79%)

SMILES: O=[N+]([O-])c1ccc(C(O)c2ccc(O[C@@H]3O[C@H](CO)[C@@H](O)[C@H](O)[C@H]3O)cc2)cc1 (stereo partly shown) [Example 129]
- DL-0 (maximum non-lethal dose) ([1]; I.P.): > 800 mg/kg IP
